Read-outs that look alike come from different tables or passages of the source.
Columns and labels:
Assay in all cases: biochemical
Parameters in all cases: In vitro kinase panel profiling, per cent remaining kinase activity at 10 uM
[1] = target: Plk3(h) (Homo sapiens, UniProt Q9H4B4); conditions: atp_concentration=70, read-out: % of control remaining
Excerpt: (§1) We derisk potential for off-target activity by profiling the compound in a CEREP panel, a standard secondary pharmacology assessment, as well as a kinase panel to derisk a potential hinge-binding motif in our leads, and a PARP panel to derisk activity against human […]. Reassuringly, the compounds are selective, with the only off-targets being moderate human CHRM2 and KOR receptors activity associated with ASAP-0011198.

[2] = target: T1, PKBα(h) (Homo sapiens, UniProt P31749); conditions: atp_concentration=155, read-out: % of control remaining
T1 construct: gene AKT1
Excerpt: as §1

[3] = target: CDK9/cyclin T1(h) (Homo sapiens, UniProt P50750); conditions: atp_concentration=45, read-out: % of control remaining
Excerpt: as §1

[4] = target: T2, CK2α2(h) (Homo sapiens, UniProt P19784); conditions: atp_concentration=10, read-out: % of control remaining
T2 construct: gene CSNK2A2
Excerpt: as §1

[5] = target: T3, IKKα(h) (Homo sapiens, UniProt O15111); conditions: atp_concentration=10, read-out: % of control remaining
T3 construct: gene CHUK
T3 sequence (O15111 1-745): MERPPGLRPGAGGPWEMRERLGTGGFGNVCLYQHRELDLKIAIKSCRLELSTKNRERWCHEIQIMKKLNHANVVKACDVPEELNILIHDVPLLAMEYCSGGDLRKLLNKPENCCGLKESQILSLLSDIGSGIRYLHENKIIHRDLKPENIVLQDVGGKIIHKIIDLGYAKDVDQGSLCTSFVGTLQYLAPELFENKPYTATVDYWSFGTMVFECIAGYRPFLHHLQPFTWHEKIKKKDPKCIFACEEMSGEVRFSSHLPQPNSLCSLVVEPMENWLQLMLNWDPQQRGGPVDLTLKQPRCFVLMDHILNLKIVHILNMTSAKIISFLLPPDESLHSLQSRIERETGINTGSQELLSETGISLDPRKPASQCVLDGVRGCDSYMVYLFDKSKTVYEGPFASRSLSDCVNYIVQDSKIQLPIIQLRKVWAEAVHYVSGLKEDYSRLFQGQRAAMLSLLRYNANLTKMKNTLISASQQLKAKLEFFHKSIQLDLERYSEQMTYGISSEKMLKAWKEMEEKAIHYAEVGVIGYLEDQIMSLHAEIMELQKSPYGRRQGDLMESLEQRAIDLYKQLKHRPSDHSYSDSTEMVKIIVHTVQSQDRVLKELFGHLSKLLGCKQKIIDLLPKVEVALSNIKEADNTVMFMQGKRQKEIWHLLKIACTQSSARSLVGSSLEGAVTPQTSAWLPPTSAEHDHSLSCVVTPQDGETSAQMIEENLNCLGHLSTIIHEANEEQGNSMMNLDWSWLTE
Excerpt: as §1

[6] = target: T4, MEK1(h) (Homo sapiens, UniProt Q02750); conditions: atp_concentration=10, read-out: % of control remaining
T4 construct: gene MAP2K1
Excerpt: as §1

[7] = target: T5, c-RAF(h) (Homo sapiens, UniProt P04049); conditions: atp_concentration=120, read-out: % of control remaining
T5 construct: gene RAF1
Excerpt: as §1

[8] = target: CDK1/cyclinB(h) (Homo sapiens, UniProt P06493); conditions: atp_concentration=45, read-out: % of control remaining
Excerpt: as §1

[9] = target: T6, SAPK2a(h) (Homo sapiens, UniProt Q16539); conditions: atp_concentration=90, read-out: % of control remaining
T6 construct: gene MAPK14
Excerpt: as §1

[10] = target: T7, p70S6K(h) (Homo sapiens, UniProt P23443); conditions: atp_concentration=15, read-out: % of control remaining
T7 construct: gene RPS6KB1
Excerpt: as §1

Chain of CDK1/cyclinB(h) (P06493 whole entry): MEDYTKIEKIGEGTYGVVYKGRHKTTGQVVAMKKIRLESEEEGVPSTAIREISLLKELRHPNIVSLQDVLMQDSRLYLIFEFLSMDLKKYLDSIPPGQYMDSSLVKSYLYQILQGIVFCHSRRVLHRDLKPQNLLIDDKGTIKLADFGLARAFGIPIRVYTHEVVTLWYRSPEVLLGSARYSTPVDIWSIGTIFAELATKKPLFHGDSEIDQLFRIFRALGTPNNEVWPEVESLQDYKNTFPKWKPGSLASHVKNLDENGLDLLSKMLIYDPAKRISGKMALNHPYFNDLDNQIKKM
Chain of CDK1/cyclinB(h) (P14635 whole entry partner): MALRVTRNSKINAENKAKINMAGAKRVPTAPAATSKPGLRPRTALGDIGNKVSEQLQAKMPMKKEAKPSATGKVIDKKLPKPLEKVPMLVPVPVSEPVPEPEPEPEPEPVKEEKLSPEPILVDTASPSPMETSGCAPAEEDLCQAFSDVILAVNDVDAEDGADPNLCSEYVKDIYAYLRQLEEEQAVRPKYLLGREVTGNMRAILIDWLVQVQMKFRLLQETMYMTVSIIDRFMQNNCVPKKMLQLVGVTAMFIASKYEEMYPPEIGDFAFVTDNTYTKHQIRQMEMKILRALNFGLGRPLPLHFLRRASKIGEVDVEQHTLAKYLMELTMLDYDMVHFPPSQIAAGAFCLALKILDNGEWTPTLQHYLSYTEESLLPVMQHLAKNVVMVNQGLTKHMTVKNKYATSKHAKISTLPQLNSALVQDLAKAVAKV
T1 sequence (P31749 whole entry): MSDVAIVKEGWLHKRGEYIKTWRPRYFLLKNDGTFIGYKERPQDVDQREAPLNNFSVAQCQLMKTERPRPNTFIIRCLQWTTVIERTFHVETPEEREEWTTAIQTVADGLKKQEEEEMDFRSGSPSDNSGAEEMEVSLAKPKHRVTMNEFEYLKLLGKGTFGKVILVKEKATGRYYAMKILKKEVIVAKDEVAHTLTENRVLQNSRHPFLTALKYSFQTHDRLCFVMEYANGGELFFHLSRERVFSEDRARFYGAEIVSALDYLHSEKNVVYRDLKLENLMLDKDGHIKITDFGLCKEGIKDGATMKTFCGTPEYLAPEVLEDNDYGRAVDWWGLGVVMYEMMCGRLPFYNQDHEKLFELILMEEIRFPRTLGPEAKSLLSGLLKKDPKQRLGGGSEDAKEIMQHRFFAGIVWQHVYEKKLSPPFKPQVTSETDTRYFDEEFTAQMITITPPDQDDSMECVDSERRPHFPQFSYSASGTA
T7 sequence (P23443 whole entry): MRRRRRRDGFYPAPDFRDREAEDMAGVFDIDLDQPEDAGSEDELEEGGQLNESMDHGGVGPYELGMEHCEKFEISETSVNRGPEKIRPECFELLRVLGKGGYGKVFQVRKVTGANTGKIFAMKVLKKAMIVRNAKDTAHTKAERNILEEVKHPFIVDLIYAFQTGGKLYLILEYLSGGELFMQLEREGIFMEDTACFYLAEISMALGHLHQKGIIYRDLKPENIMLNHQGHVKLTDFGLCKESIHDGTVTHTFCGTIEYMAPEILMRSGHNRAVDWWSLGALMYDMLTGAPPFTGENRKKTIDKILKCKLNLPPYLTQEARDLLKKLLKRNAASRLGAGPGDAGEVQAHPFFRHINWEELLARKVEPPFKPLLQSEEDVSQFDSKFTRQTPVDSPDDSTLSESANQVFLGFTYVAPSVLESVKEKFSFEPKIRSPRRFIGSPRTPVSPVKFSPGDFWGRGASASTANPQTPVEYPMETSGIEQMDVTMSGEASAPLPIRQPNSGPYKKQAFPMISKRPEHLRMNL
T6 sequence (Q16539 whole entry): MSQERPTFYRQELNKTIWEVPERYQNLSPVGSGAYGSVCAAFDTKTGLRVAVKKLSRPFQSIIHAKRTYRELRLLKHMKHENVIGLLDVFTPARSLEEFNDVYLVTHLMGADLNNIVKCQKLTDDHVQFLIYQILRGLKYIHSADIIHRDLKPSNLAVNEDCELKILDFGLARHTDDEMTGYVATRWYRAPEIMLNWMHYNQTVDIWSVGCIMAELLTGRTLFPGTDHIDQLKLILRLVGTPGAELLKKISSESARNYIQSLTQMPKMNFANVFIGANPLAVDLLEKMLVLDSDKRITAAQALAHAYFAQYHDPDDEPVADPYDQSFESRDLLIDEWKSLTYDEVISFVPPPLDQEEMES
T4 sequence (Q02750 whole entry): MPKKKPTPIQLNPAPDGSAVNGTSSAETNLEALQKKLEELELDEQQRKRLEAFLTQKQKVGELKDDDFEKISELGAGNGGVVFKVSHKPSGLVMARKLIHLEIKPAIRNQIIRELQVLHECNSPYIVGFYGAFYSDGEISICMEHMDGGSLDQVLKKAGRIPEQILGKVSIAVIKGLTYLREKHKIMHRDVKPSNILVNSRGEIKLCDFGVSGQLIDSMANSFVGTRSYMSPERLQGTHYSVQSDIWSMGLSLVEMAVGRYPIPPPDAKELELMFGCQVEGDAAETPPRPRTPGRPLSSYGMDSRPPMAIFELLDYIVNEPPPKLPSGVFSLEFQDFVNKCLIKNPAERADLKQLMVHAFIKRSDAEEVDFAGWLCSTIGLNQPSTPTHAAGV
T2 sequence (P19784 whole entry): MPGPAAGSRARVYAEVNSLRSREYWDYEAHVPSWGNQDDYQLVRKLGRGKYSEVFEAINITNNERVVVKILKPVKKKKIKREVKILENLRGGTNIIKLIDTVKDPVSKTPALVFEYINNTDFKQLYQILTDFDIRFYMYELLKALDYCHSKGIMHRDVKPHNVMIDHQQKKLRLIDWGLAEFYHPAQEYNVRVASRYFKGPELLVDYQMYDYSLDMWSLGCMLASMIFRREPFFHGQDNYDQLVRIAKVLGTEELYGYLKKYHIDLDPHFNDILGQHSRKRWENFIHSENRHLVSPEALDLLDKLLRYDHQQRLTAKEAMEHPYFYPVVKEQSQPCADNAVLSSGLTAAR
Chain of CDK9/cyclin T1(h) (P50750 whole entry): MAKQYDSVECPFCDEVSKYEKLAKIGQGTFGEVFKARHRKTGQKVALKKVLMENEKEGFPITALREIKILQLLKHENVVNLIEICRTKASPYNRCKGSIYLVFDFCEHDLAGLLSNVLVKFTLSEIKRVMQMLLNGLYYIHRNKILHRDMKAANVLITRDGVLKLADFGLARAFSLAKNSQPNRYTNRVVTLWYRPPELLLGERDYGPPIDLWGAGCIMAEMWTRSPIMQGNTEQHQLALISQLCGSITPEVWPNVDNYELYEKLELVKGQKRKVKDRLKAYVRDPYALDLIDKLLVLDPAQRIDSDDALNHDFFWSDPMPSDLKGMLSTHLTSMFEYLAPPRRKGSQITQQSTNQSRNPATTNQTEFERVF
Chain of CDK9/cyclin T1(h) (O60563 whole entry partner): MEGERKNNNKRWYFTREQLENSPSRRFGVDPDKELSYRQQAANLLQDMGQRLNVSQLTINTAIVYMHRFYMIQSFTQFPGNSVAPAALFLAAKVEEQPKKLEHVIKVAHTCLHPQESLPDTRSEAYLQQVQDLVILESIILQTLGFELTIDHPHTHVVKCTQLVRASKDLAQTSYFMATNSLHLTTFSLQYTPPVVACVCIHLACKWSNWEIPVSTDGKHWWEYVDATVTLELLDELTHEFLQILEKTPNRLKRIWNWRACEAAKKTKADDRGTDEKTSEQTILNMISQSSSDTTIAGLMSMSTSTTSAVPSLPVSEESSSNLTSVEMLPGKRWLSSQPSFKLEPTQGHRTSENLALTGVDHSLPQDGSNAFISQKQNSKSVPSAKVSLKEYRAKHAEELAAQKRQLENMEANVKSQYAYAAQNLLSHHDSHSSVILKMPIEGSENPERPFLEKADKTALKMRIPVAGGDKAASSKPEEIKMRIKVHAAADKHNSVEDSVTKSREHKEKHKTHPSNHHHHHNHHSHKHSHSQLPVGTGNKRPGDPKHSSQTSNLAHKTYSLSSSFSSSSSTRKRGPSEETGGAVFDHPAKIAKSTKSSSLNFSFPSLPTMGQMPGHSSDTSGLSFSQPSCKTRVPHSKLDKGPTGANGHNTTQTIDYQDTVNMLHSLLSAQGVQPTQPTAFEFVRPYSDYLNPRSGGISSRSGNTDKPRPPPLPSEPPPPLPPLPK
T5 sequence (P04049 whole entry): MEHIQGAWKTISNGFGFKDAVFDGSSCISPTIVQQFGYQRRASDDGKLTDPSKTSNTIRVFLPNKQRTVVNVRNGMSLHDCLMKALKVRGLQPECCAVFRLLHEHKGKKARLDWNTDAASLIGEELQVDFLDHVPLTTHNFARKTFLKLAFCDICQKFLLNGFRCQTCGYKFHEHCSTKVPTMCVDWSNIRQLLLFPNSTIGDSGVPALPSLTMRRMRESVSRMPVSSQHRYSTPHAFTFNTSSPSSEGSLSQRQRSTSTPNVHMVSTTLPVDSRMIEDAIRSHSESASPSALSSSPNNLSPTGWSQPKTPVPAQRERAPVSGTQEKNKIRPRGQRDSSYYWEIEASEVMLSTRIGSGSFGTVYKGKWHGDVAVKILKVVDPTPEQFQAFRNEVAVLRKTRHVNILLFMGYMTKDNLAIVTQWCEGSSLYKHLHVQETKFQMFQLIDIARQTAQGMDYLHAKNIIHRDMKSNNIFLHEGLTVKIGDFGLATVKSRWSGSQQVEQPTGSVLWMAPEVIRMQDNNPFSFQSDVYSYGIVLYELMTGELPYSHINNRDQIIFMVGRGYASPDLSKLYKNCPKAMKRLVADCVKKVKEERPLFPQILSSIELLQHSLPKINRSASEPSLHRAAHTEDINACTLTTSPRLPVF

## COc1ccc([C@H](Cc2nnn[nH]2)NC(=O)c2ncnc3[nH]ccc23)cc1 [ASAP-0015381]
[1]; batch_name=ASAP-0015381-001
  remaining activity at 10 µM: 102%
[2]; batch_name=ASAP-0015381-001
  remaining activity at 10 µM: 97%
[3]; batch_name=ASAP-0015381-001
  remaining activity at 10 µM: 109%
[4]; batch_name=ASAP-0015381-001
  remaining activity at 10 µM: 93%
[5]; batch_name=ASAP-0015381-001
  remaining activity at 10 µM: 98%
[6]; batch_name=ASAP-0015381-001
  remaining activity at 10 µM: 100%
[7]; batch_name=ASAP-0015381-001
  remaining activity at 10 µM: 103%
[8]; batch_name=ASAP-0015381-001
  remaining activity at 10 µM: 98%
[9]; batch_name=ASAP-0015381-001
  remaining activity at 10 µM: 103%
[10]; batch_name=ASAP-0015381-001
  remaining activity at 10 µM: 113%

## COc1ccc([C@@H](Cc2nnn[nH]2)NC(=O)c2ncnc3[nH]ccc23)cc1 [ASAP-0008340]
[1]; batch_name=ASAP-0008340-001
  remaining activity at 10 µM: 102%
[2]; batch_name=ASAP-0008340-001
  remaining activity at 10 µM: 94%
[3]; batch_name=ASAP-0008340-001
  remaining activity at 10 µM: 117%
[4]; batch_name=ASAP-0008340-001
  remaining activity at 10 µM: 88%
[5]; batch_name=ASAP-0008340-001
  remaining activity at 10 µM: 99%
[6]; batch_name=ASAP-0008340-001
  remaining activity at 10 µM: 92%
[7]; batch_name=ASAP-0008340-001
  remaining activity at 10 µM: 90%
[8]; batch_name=ASAP-0008340-001
  remaining activity at 10 µM: 108%
[9]; batch_name=ASAP-0008340-001
  remaining activity at 10 µM: 100%
[10]; batch_name=ASAP-0008340-001
  remaining activity at 10 µM: 81%

## CNCc1cc(-c2cc3c(N[C@@H](c4ccc5c(c4)S(=O)(=O)CCC5)C(C)C)ncnc3[nH]2)co1 [ASAP-0011176]
[1]; batch_name=ASAP-0011176-002
  remaining activity at 10 µM: 124%
[2]; batch_name=ASAP-0011176-002
  remaining activity at 10 µM: 96%
[3]; batch_name=ASAP-0011176-002
  remaining activity at 10 µM: 40%
[4]; batch_name=ASAP-0011176-002
  remaining activity at 10 µM: 90%
[5]; batch_name=ASAP-0011176-002
  remaining activity at 10 µM: 79%
[6]; batch_name=ASAP-0011176-002
  remaining activity at 10 µM: 97%
[7]; batch_name=ASAP-0011176-002
  remaining activity at 10 µM: 100%
[8]; batch_name=ASAP-0011176-002
  remaining activity at 10 µM: 97%
[9]; batch_name=ASAP-0011176-002
  remaining activity at 10 µM: 97%
[10]; batch_name=ASAP-0011176-002
  remaining activity at 10 µM: 110%

## Cn1ncc(-c2cc3c(N[C@@H](c4ccc5c(n4)OCCO5)C(C)(C)C)ncnc3[nH]2)c1C#N [ASAP-0011221]
[1]; batch_name=ASAP-0011221-002
  remaining activity at 10 µM: 77%
[2]; batch_name=ASAP-0011221-002
  remaining activity at 10 µM: 103%
[3]; batch_name=ASAP-0011221-002
  remaining activity at 10 µM: 130%
[4]; batch_name=ASAP-0011221-002
  remaining activity at 10 µM: 92%
[5]; batch_name=ASAP-0011221-002
  remaining activity at 10 µM: 125%
[6]; batch_name=ASAP-0011221-002
  remaining activity at 10 µM: 98%
[7]; batch_name=ASAP-0011221-002
  remaining activity at 10 µM: 87%
[8]; batch_name=ASAP-0011221-002
  remaining activity at 10 µM: 97%
[9]; batch_name=ASAP-0011221-002
  remaining activity at 10 µM: 106%
[10]; batch_name=ASAP-0011221-002
  remaining activity at 10 µM: 108%

## C[C@H](C(=O)O)[C@@H](NC(=O)c1ncnc2[nH]ccc12)c1ccc(Br)cc1 [ASAP-0014722]
[1]; batch_name=ASAP-0014722-002
  remaining activity at 10 µM: 98%
[2]; batch_name=ASAP-0014722-002
  remaining activity at 10 µM: 95%
[3]; batch_name=ASAP-0014722-002
  remaining activity at 10 µM: 103%
[4]; batch_name=ASAP-0014722-002
  remaining activity at 10 µM: 91%
[5]; batch_name=ASAP-0014722-002
  remaining activity at 10 µM: 99%
[6]; batch_name=ASAP-0014722-002
  remaining activity at 10 µM: 89%
[7]; batch_name=ASAP-0014722-002
  remaining activity at 10 µM: 108%
[8]; batch_name=ASAP-0014722-002
  remaining activity at 10 µM: 92%
[9]; batch_name=ASAP-0014722-002
  remaining activity at 10 µM: 103%
[10]; batch_name=ASAP-0014722-002
  remaining activity at 10 µM: 97%

Reference: doi:10.1101/2024.08.19.608619, “Discovery of potent SARS-CoV-2 nsp3 macrodomain inhibitors uncovers lack of translation to cellular antiviral response” (bioRxiv, 2024)
